Results taken from patent publication US8901118B2, “Compounds and methods for kinase modulation, and indications therefor” (Plexxikon Inc., priority 2010, dated 2014).

Experiments:
BCR-NTRK2 BaF3 cells = molecular target: T1, BCR-NTRK2 BaF3 cells (Homo sapiens, UniProt Q16620); assay: BaF3 BCR-NTRK2 cell proliferation assay (ATPlite); assay type: cell-based; settings: read-out: Inhibition of Cell Proliferation IC50, BCR/BaF3 TrkB
T1 construct: fused on or other part: P11274 (Breakpoint cluster region protein)
Outline: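 Growth inhibition over 3 days at 37 °C; IC50 from ATPlite luminescence, 8 concentrations (1:3 steps, max 10 μM). BaF3 fusion lines were tested without IL-3.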

CYP1A2 = molecular target: T2, CYP1A2 (Homo sapiens, UniProt P05177); assay: CYP1A2 inhibition (fluorescent substrate CEC); assay type: in vitro ADME; settings: read-out: Cyp IC50 1A2
T2 sequence (P05177 1-516): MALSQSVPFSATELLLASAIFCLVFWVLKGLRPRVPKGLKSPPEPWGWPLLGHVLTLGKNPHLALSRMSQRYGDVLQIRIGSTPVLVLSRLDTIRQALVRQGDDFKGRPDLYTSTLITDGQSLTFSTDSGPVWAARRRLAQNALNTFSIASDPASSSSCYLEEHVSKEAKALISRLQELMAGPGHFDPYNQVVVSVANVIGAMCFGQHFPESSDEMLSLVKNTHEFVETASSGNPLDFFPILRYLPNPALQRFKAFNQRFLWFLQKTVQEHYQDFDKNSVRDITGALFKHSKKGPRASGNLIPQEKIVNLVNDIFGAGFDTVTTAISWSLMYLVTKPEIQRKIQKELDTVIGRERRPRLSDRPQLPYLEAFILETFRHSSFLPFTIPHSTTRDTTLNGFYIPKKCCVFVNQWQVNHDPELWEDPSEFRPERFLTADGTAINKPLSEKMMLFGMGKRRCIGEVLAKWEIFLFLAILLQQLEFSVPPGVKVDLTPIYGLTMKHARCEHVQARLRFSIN
Outline: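 Inhibition is measured as the drop in fluorescent metabolite formation across a 10-point compound titration with NADPH regeneration at 37 °C. Incubation lasts 15 min for CYP1A2, 45 min for CYP2C9 and 30 min for CYP2C19 and CYP2D6.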

CYP3A4(BQ) = CYP3A4(BQ) (Homo sapiens, UniProt P08684); assay: CYP3A4(BQ) inhibition; assay type: in vitro ADME; settings: CYP3A4, substrate BQ; read-out: Cyp IC50 3A4(BQ)
Outline: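 Inhibition of human CYP3A4 (BQ substrate) was measured by fluorescence, since blocking metabolism of a known substrate lowers the fluorescent product signal. Compounds dissolved in DMSO at 100 mM were diluted into acetonitrile and then into NADPH regeneration cofactor mix, serially diluted 1:1 across 10 points, and preincubated in 384 well plates for 10 minutes at 37° C.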

T1 sequence (Q16620 538-807): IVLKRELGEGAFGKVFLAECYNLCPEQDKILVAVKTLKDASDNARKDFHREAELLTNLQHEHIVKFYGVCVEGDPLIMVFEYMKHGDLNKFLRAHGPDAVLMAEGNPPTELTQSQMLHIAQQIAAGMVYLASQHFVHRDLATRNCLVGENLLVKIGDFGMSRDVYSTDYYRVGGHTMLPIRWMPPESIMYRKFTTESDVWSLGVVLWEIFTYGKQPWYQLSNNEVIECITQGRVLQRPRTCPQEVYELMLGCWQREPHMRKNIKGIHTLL
Chain of CYP3A4(BQ) (P08684 whole entry): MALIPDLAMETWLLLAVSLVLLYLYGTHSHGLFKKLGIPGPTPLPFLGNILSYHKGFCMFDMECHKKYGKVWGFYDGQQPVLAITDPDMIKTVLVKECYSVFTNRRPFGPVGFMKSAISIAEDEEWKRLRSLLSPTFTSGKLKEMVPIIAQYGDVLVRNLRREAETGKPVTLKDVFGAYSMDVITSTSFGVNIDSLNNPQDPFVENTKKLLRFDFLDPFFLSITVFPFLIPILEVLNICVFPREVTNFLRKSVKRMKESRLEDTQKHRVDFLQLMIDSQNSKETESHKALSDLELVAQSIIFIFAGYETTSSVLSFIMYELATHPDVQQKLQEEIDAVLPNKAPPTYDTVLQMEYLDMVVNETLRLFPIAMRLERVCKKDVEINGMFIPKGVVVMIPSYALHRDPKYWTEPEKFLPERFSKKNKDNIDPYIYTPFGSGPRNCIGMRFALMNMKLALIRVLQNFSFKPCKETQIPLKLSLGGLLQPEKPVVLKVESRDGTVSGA

SMILES | IC50 (BCR-NTRK2 BaF3 cells) | IC50 (CYP1A2) | IC50 (CYP3A4(BQ))
CNc1ncnc2[nH]cc(C(=O)c3ccc(NC4CCCCC4)nc3Cl)c12 [Compound P-4110, [2-chloro-6-(cyclohexylamino)-3-pyridyl]-[4-(methylamino)-7H-pyrrolo[2,3-d]pyrimidin-5-yl]methanone] | > 1 µM | < 5 µM | > 10 µM
COc1ccc(Nc2ccc(C(=O)c3c[nH]c4ncnc(NC5CCC5)c34)c(F)n2)cn1 [Compound P-4076, [4-(cyclobutylamino)-7H-pyrrolo[2,3-d]pyrimidin-5-yl]-[2-fluoro-6-[(6-methoxy-3-pyridyl)amino]-3-pyridyl]methanone] | < 0.01 µM | > 10 µM | > 5 µM
CCC(CC)Nc1ncnc2[nH]cc(C(=O)c3ccc(Nc4ccc(OC)nc4)nc3F)c12 [Compound P-4077, [4-(1-ethylpropylamino)-7H-pyrrolo[2,3-d]pyrimidin-5-yl]-[2-fluoro-6-[(6-methoxy-3-pyridyl)amino]-3-pyridyl]methanone] | < 0.01 µM | 5 to 10 µM | > 10 µM
COc1ccc(Nc2ccc(C(=O)c3c[nH]c4ncnc(NCc5ccc(C(F)(F)F)nc5)c34)c(F)n2)cn1 [Compound P-4071, [2-fluoro-6-[(6-methoxy-3-pyridyl)amino]-3-pyridyl]-[4-[[6-(trifluoromethyl)-3-pyridyl]methylamino]-7H-pyrrolo[2,3-d]pyrimidin-5-yl]methanone] | < 0.1 µM | > 10 µM | > 10 µM
COc1ccc(Nc2ccc(C(=O)c3c[nH]c4ncnc(NCC5CC5)c34)c(F)n2)cn1 [Compound P-4067, [4-(cyclopropylmethylamino)-7H-pyrrolo[2,3-d]pyrimidin-5-yl]-[2-fluoro-6-[(6-methoxy-3-pyridyl)amino]-3-pyridyl]methanone] | < 0.01 µM | > 10 µM | > 10 µM
O=C(c1ccc(NC2CCC(F)(F)CC2)nc1Cl)c1c[nH]c2ncnc(NC3CC3)c12 [Compound P-4059, [2-chloro-6-[(4,4-difluorocyclohexyl)amino]-3-pyridyl]-[4-(cyclopropylamino)-7H-pyrrolo[2,3-d]pyrimidin-5-yl]methanone] | < 0.1 µM | > 10 µM | > 10 µM

Continued, values first:

IC50 (BCR-NTRK2 BaF3 cells) | IC50 (CYP1A2) | IC50 (CYP3A4(BQ)) | SMILES
< 0.01 µM | < 5 µM | 5 to 10 µM | COc1ccc(Nc2ccc(C(=O)c3c[nH]c4ncnc(NC5CC5)c34)c(F)n2)cn1 [Compound P-4126, [4-(cyclopropylamino)-7H-pyrrolo[2,3-d]pyrimidin-5-yl]-[2-fluoro-6-[(6-methoxy-3-pyridyl)amino]-3-pyridyl]methanone]
< 0.01 µM | < 5 µM | > 10 µM | CCc1ccc(Nc2ccc(C(=O)c3c[nH]c4ncnc(NC)c34)c(F)n2)cn1 [Compound P-4124, [6-[(6-ethyl-3-pyridyl)amino]-2-fluoro-3-pyridyl]-[4-(methylamino)-7H-pyrrolo[2,3-d]pyrimidin-5-yl]methanone]
< 0.01 µM | > 10 µM | > 10 µM | CCNc1ncnc2[nH]cc(C(=O)c3ccc(Nc4ccc(CC)nc4)nc3F)c12 [Compound P-4123, [4-(ethylamino)-7H-pyrrolo[2,3-d]pyrimidin-5-yl]-[6-[(6-ethyl-3-pyridyl)amino]-2-fluoro-3-pyridyl]methanone]
